Data from patent US20210145795A1 (priority 2018, published 2021).
Entries after “also recorded” stand apart in the source; their conditions may differ. Like-named read-outs stand apart in the source and are kept apart here.

Experiments:
USSR H1N1 virus [1] = assay: microbe, parasite or virus in culture; format: cell-based, influenza A virus
viral M-gene = format: cell-based, influenza A virus; conditions: NPTr cells
[2] = tested on: extracellular Ca^2+ influx; assay: Fluo-8 intracellular Ca2+ monitoring assay (NPTr cells; TG also in other cell types); format: cell-based, pig
RIG-I, OAS1 and PKR = format: cell-based, pig
pdm H1N1 virus = format: cell-based, influenza A virus
DDIT3, HSPA5 and HSP90B1 = format: cell-based, pig; conditions: NPTr cells
USSR H1N1 virus [3] = assay: microbe, parasite or virus in culture; format: cell-based, influenza A virus; remark: listed apart in the source
in vitro [4] = conditions: pig
USSR H1N1 virus [5] = format: cell-based, influenza A virus
NHBE cells = conditions: TG concentrations used for priming
[6] = CellTiter-Glo luminescent cell viability assay, HEp2 cells; format: cell-based; conditions: human, HEp-2 cells
Experimental: (§1) Spun supernatants were collected to infect HEp2 cells for 24 h for immuno-detection of RSV. TG doses used to prime HEp2 cells were non-toxic. 30 min TG treated cells were rinsed, cultured overnight and subjected to cell viability assays (CellTiter-Glo® Luminescent Cell Viability Assay kit, Promega. Results are shown in FIG. 22.

influenza A virus = conditions: MDCK cells, 0.001 μM TG over 48 h of infection; cited from earlier work
[7] = tested on: RSV (A2 strain, ATCC VR-1540); assay: RSV production from primed HEp2 cells (immuno-detection of RSV); format: cell-based, human respiratory syncytial virus
Experimental: as §1
Spun supernatants from infected samples were collected to infect HEp2 cells for 24 h for immuno-detection of RSV.
In further experiments, HEp2 cells were first infected with RSV at 0.1 MOI for 24 or 48 h followed by priming with TG or DMSO control for 30 min. Fresh media were used to replace TG containing media of 24 h infected cells; and supernatants collected earlier from 48 h infected cells were used to replace TG containing media of 48 h infected cells. All samples were infected for total period 72 h. Spun supernatants were collected to infect HEp2 cells for 24 h for RSV immuno-detection. DMSO controls were based on combined control supernatants from 24 and 48 h time points.

in vitro [8] = conditions: human
viral NP and M1 protein = format: cell-based, influenza A virus; conditions: 0.5 μM TG (NPTr, myoblasts) or 0.005 μM TG (NHBE) 30 min, USSR H1N1, 24 h
USSR H1N1 virus [9] = format: cell-based, influenza A virus; remark: listed apart in the source

Compound: Tunicamycin [reference compound]
- virus production (USSR H1N1 virus [1]): only slightly reduced virus production
- virus production relative to correspondingly infected TG primed cells (USSR H1N1 virus [1]; NPTr cells, USSR H1N1, tunicamycin primed vs TG 0.5 μM): 7.5 times
- viral M-gene expression (viral M-gene; tunicamycin primed): without reduction in viral M-gene expression
- cell viability (NPTr cells; NPTr cells, tunicamycin 30 min, non-toxic doses): did not affect cell viability
- Ca^2+ influx ([2]; tunicamycin at non-toxic doses): did not induce Ca^2+ influx
- expression of type I IFN associated genes (RIG-I, OAS1 and PKR) in response to infection (RIG-I, OAS1 and PKR; NPTr cells, tunicamycin primed): little change in the expression of type I IFN associated genes
- virus production relative to correspondingly infected TG primed cells (pdm H1N1 virus; NPTr cells, pdm H1N1, tunicamycin primed vs TG 0.5 μM): 2.8 times
- induction of ER stress associated genes, higher than by TG (DDIT3, HSPA5 and HSP90B1; tunicamycin 1.0 μg/ml vs TG 0.5 μM): 3 to 8.2 fold

Compound: CC1=C2[C@H](/C=C(\C)C(=O)O)CC[C@@H](C)[C@H]2CC1 [valerenic acid]
- USSR H1N1 virus production (USSR H1N1 virus [1]): reduced USSR H1N1 virus production like that of TG

Compound: CC(=O)C1=C(O)[C@@H]2[C@H]3c4c[nH]c5cccc(c45)C[C@H]3C(C)(C)N2C1=O [CPA, Cyclopiazonic acid]
- reduction in ATP production (NPTr cells; 5 μM CPA 30 min, 24 h incubation): 8.3%
- concentration from which Ca^2+ influx was detected [2]: ≥ 10 µM

Compound: Cc1nnsc1C(=O)Nc1ccc(-n2nc(C(F)(F)F)cc2C(F)(F)F)cc1 [BTP2, reference compound]
- progeny virus release (USSR H1N1 virus [1]): small increase in progeny virus release

Compound: CC1=C2CC[C@@H](C)[C@H]2[C@H]2[C@@H](CC1)C2(C)C [(+)-ledene]
- USSR H1N1 virus production (USSR H1N1 virus [1]): reduced USSR H1N1 virus production like that of TG
- progeny virus output (USSR H1N1 virus [3]): dramatic reduction in progeny virus output; also recorded: reduced progeny virus output

Compound: C[C@@H]1CC[C@H]2[C@@H](C)C(=O)O[C@@H]3O[C@@]4(C)CC[C@@H]1[C@]32OO4 [artemisinin, reference compound]
- USSR H1N1 virus production (USSR H1N1 virus [1]): reduced USSR H1N1 virus production like that of TG
- progeny viral output (USSR H1N1 virus [1]): reduces progeny viral output
- viral M-gene expression (viral M-gene; artemisinin 0.1 μM and 1.0 μM): without significant alteration in viral M-gene expression
- progeny viral output (pdm H1N1 virus): reduces progeny viral output

Compound: C=C1C(=O)O[C@@H]2[C@H]3C(C)=CC(=O)C3=C(C)CC[C@@H]12 [dehydroleucodine]
- progeny virus output (USSR H1N1 virus [3]): reduced progeny virus output

Compound: C/C=C(/C)C(=O)O[C@H]1C(C)=C2[C@H]([C@@H]1OC(=O)CCCCCCC)[C@@](C)(OC(C)=O)C[C@H](OC(=O)CCC)[C@@]1(O)[C@H]2OC(=O)[C@@]1(C)O [TG, thapsigargin]
- CC50 (in vitro [4]): 56.6 µM
- duration of the antiviral state (USSR H1N1 virus [1]): at least 24 h
- virus output (USSR H1N1 virus [1]): marked reduction in virus output
- IC50 (USSR H1N1 virus [1]; Influenza A virus, H1N1, read-out: IC50 (50% reduction of progeny virus)): 0.00712 µM
- virus reduction (USSR H1N1 virus [1]; NPTr cells pre-primed with 0.1 μM TG for 30 min): 82%
- virus reduction (USSR H1N1 virus [1]; NPTr cells pre-primed with 0.5 μM TG for 30 min): 93%
- selectivity index (CC50/IC50) (USSR H1N1 virus [1]; NPTr cells, USSR H1N1): 7952.21
- duration of the antiviral state (USSR H1N1 virus [5]): at least 24 h
- virus output (USSR H1N1 virus [3]): marked reduction in virus output
- IC50 (USSR H1N1 virus [3]; Influenza A virus, H1N1, NHBE, read-out: USSR virus inhibitory concentration [IC50]): 0.00391 µM
- progeny virus output (USSR H1N1 virus [3]; NHBE cells, 5 nM TG for 30 min): dramatic reduction in progeny virus output
- selectivity index (CC50/IC50) (USSR H1N1 virus [3]; NHBE cells, USSR H1N1): 8572.89
- cytotoxic effect on cell viability (ATP production, caspase 3/7 activity) (NPTr cells; NPTr cells, TG concentrations used for priming): no cytotoxic effect on cell viability
- Ca^2+ influx ([2]; brief TG exposure (10 min), primary porcine myoblasts, PTECs and NHBE cells, dependent on extracellular Ca^2+): modest Ca^2+ influx
- cytotoxic effect on cell viability (ATP production, caspase 3/7 activity) (NHBE cells): no cytotoxic effect on cell viability
- CC50 [6]: 90 µM
- expression of type I IFN associated genes (RIG-I, OAS1) in response to infection (RIG-I, OAS1 and PKR; TG priming before or during infection, different cell types): consistently increased the expression of type I IFN associated genes
- progeny influenza virus output (influenza A virus): increase progeny influenza virus output
- virus production, TG before vs after an initial infection period of 6 h (pdm H1N1 virus; NPTr (0.5 μM, pdm H1N1), NHBE (0.01 μM, USSR H1N1), myoblasts (0.5 μM, USSR H1N1), 30 min): comparable reduction in virus production
- duration of sustained anti-viral effect on RSV after priming ([7]; HEp2 cells, 30 min priming): over 48 h
- RSV production, priming during infection ([7]; HEp2 cells, TG 30 min at 48 h post-infection): rapidly effective in blocking virus production
- RSV production ([7]; HEp2 cells, TG at non-toxic levels 30 min before infection, RSV 0.1 MOI 3 days): blocks RSV production
- selectivity index ([7]; HEp-2 cells, 3 d infection period): 1346.499
- IC50 ([7]; human respiratory syncytial virus, 72 h, HEp-2 cells, 3 d infection period): 0.0668 µM
- CC50 (in vitro [8]): 33.5 µM
- viral NP and M1 protein (viral NP and M1 protein): no or only small reduction in viral NP and M1 protein
- duration of the antiviral state (USSR H1N1 virus [9]): at least 24 h
- virus output (USSR H1N1 virus [9]): marked reduction in virus output
- expression of ER stress associated genes (DDIT3, HSPA5 and HSP90B1) (DDIT3, HSPA5 and HSP90B1; TG at non-toxic levels, porcine myoblasts and NHBE cells, dose-dependent): consistently elevated ER stress associated genes

Compound: dehydroleucodine
- USSR H1N1 virus production (USSR H1N1 virus [1]): reduced USSR H1N1 virus production like that of TG

Compound: COc1ccc(OC)c(-c2ccc(NC(=O)c3ccncc3F)cc2)c1 [Synta66, reference compound]
- progeny virus release (USSR H1N1 virus [1]): small increase in progeny virus release
